# According to article PMC6264142, “Microwave Assisted Organic Synthesis (MAOS) of Small Molecules as Potential HIV-1 Integrase Inhibitors” (Molecules, 2011):
# Key:
# [1] = target: T1, HIV-1 integrase (strand transfer step) (Human immunodeficiency virus type 1 group M subtype B, UniProt P04585); test: Strand transfer assay (ELISA); assay type: biochemical; conditions: concentration required to inhibit the in vitro strand transfer step by 50%; read-out: IN enzymatic activity (IC50) ST
# T1 construct: To determine the susceptibility of the HIV-1 integrase enzyme towards different compounds
# Text: (§1) Overall integrase assay using an enzyme-linked immunosorbent assay (ELISA): To determine the susceptibility of the HIV-1 integrase enzyme towards different compounds we used enzyme-linked immunosorbent assays. These assays use an oligonucleotide substrate of which one oligonucleotide (5’-[…]-3’) is labeled with biotin at the 3’ end and the other oligonucleotide is labeled with digoxigenin at the 5’ end. For the overall integration assay the second 5’-digoxigenin labeled oligonucleotide is (5’-[…] […]-3’). For the Strand Transfer assay the second oligonucleotide lacks GT at the 3’ end. The integrase enzyme was diluted in 750 mM NaCl, 10 mM Tris pH 7.6, 10% glycerol, and 1 mM β-mercaptoethanol. To perform the reaction, diluted integrase (4 µL, corresponding to a concentration of 1.6 µM) and annealed oligonucleotides (4 µL, 7 nM) were added in a final reaction volume of 40 µL containing 10 mM MgCl2, 5 mM DTT, 20 mM HEPES pH 7.5, 5% PEG, and 15% DMSO. The reaction was carried out for 1 h at 37 °C. Reaction products were denatured with 30 mM NaOH and detected by an immunosorbent assay on avidin-coated plates.
# HIV-1 integrase = target: T2, HIV-1 integrase (Human immunodeficiency virus type 1 group M subtype B, UniProt P04585); test: Overall integrase assay (ELISA); assay type: biochemical; conditions: concentration required to inhibit the in vitro overall integrase activity by 50%; read-out: IN enzymatic activity (IC50) Overall
# T2 construct: To determine the susceptibility of the HIV-1 integrase enzyme towards different compounds
# Text: as §1
# [2] = system: HIV(IIIB) strain in MT-4 cells; test: MT-4/MTT assay, HIV-induced cytopathic effect; assay type: cell-based, HIV-1; conditions: for EC50: Human immunodeficiency virus 1, IIIB, MT4, 50% protection against CPE of HIV, read-out: EC50 against HIV-1 replication in cell cultures
# Protocol: In vitro anti-HIV and drug susceptibility assays: The inhibitory effect of antiviral drugs on the HIV-induced cytopathic effect (CPE) in human lymphocyte MT-4 cell culture was determined by the MT-4/MTT-assay. This assay is based on the reduction of the yellow 3-(4,5-dimethylthiazol-2-yl)-2,5-diphenyltetrazolium bromide (MTT) by mitochondrial dehydrogenase of metabolically active cells to a blue formazan derivative, which can be measured spectrophotometrically. The 50% cell culture infective dose (CCID50) of the HIV(IIIB) strain was determined by titration of the virus stock using MT-4 cells. For the drug-susceptibility assays, MT-4 cells were infected with 100–300 CCID50 of the virus stock in the presence of fivefold serial dilutions of the antiviral drugs. The concentration of the various compounds that achieved 50% protection against the CPE of the different HIV strains, which is defined as the EC50, was determined. In parallel, the 50% cytotoxic concentration (CC50) was determined.
# HIV-IN = system: HIV-IN; set-up: method as in PMID 19385721, PMID 20112170; conditions: HIV-IN inhibitor; cited from earlier work
SMILES,IC50 [1] [µM],IC50 (HIV-1 integrase) [µM],melting point [°C],EC50 [2] [nM],IC50 (HIV-IN) [nM],selectivity index (SI) ([2]; ratio of EC50 and CC50 values)
"COc1cccc2c1c(C(=O)/C=C(\O)C(=O)O)cn2Cc1ccc(F)cc1 [CHI-1043, reference compound]",0.14 ± 0.11,0.08 ± 0.003,,,,
"COc1cccc2c1c(C(=O)C=C(O)C(=O)O)cn2Cc1cc(C)cc(C)c1 [Compound 7h, 4-[1-(3,5-Dimethylbenzyl)-4-methoxy-1H-indol-3-yl]-2-hydroxy-4-oxobut-2-enoic acid]",5.49 ± 2.67,7.69 ± 5.59,120 to 122,,,
"COc1cccc2c1c(C(=O)C=C(O)C(=O)O)cn2Cc1ccc(C)cc1C [Compound 7e, 4-[1-(2,4-Dimethylbenzyl)-4-methoxy-1H-indol-3-yl]-2-hydroxy-4-oxobut-2-enoic acid]",55.9 ± 43.8,51.8 ± 33.8,143 to 145,,,
"COc1cccc2c1c(C(=O)C=C(O)C(=O)O)cn2Cc1cccc(C)c1C [Compound 7d, 4-[1-(2,3-Dimethylbenzyl)-4-methoxy-1H-indol-3-yl]-2-hydroxy-4-oxobut-2-enoic acid]",6.79 ± 0.64,2.61 ± 1.17,160 to 162,1740,,
"COc1cccc2c1c(C(=O)C=C(O)C(=O)O)cn2Cc1cc(C)c(F)c(C)c1 [Compound 7i, 4-[1-(4-Fluoro-3,5-dimethylbenzyl)-4-methoxy-1H-indol-3-yl]-2-hydroxy-4-oxobut-2-enoic acid]",5.24 ± 1.34,2.17 ± 1.65,153 to 155,,,
Cc1nnc(C(=O)NC(C)(C)c2nc(C(=O)NCc3ccc(F)cc3)c(O)c(=O)n2C)o1 [raltegravir],,,,,6.8,
"COc1cccc2c1c(C(=O)C=C(O)C(=O)O)cn2Cc1ccc(C)cc1 [Compound 7c, 4-[1-(4-Methylbenzyl)-4-methoxy-1H-indol-3-yl]-2-hydroxy-4-oxobut-2-enoic acid]",8.84 ± 5.6,5.76 ± 1.82,141 to 143,,,
"COc1cccc2c1c(C(=O)C=C(O)C(=O)O)cn2Cc1ccccc1C [Compound 7a, 4-[1-(2-Methylbenzyl)-4-methoxy-1H-indol-3-yl]-2-hydroxy-4-oxobut-2-enoic acid]",1.07 ± 0.76,1.74 ± 1.32,164 to 166,1740,,43
"COc1cccc2c1c(C(=O)C=C(O)C(=O)O)cn2Cc1cccc(C)c1 [Compound 7b, 4-[1-(3-Methylbenzyl)-4-methoxy-1H-indol-3-yl]-2-hydroxy-4-oxobut-2-enoic acid]",1.36 ± 0.64,0.42 ± 0.29,150 to 152,2140,,
"COc1cccc2c1c(C(=O)C=C(O)C(=O)O)cn2Cc1cc(C)ccc1C [Compound 7f, 4-[1-(2,5-Dimethylbenzyl)-4-methoxy-1H-indol-3-yl]-2-hydroxy-4-oxobut-2-enoic acid]",9.47 ± 1.06,3.83 ± 2.21,163 to 165,,,
"COc1cccc2c1c(C(=O)C=C(O)C(=O)O)cn2Cc1c(C)cccc1C [Compound 7g, 4-[1-(2,6-Dimethylbenzyl)-4-methoxy-1H-indol-3-yl]-2-hydroxy-4-oxobut-2-enoic acid]",23.5 ± 17.8,7.34 ± 1.32,173 to 175,,,
